Reference: patent US20100286173A1 (priority 2008, published 2010)
Where two headings read alike, the source gives them in different places.

Assay: Measurement of logP values by HPLC on reversed phase columns (EEC directive 79/831 Annex V.A8)
Format: physicochemical
Settings: pH 2.7, 0.1% formic acid in water / acetonitrile gradient 10% to 95%; for chromatographic logP: reversed phase HPLC column

Row | SMILES | logp | Log p | further results
1 | CCCCCC(=O)Nc1cccc(CON=C(c2cc(C)ccc2F)c2nnnn2C)n1 [Example 100] | 3.92 |  | 
2 | CC#CCOC(=O)Nc1cccc(CON=C(c2ccc(F)c(C)c2)c2nnnn2C)n1 [Example 101] | 3.67 |  | 
3 | CCCCCC(=O)Nc1cccc(CON=C(c2cccc(C)c2F)c2nnnn2C)n1 [Example 103] | 3.96 |  | 
4 | CCCCCC(=O)Nc1cccc(CON=C(c2ccc(F)c(C(F)(F)F)c2)c2nnnn2C)n1 [Example 104] | 4.36 |  | 
5 | CCCCCC(=O)Nc1cccc(CON=C(c2cc(C(F)(F)F)ccc2Cl)c2nnnn2C)n1 [Example 106] | 4.39 |  | 
6 | CCCCCC(=O)Nc1cccc(CON=C(c2ccc(C(F)(F)F)c(Cl)c2)c2nnnn2C)n1 [Example 107] | 4.7 |  | 
7 | CCCCCC(=O)Nc1cccc(CON=C(c2cc(C(F)(F)F)ccc2C)c2nnnn2C)n1 [Example 111] | 4.34 |  | 
8 | CCCCCC(=O)Nc1cccc(CON=C(c2cccc(F)c2C)c2nnnn2C)n1 [Example 112] | 3.96 |  | 
9 | CCCCCC(=O)Nc1cccc(CON=C(c2ccc(C)cc2F)c2nnnn2C)n1 [Example 115] | 3.92 |  | 
10 | CCCCCC(=O)Nc1cccc(CON=C(c2ccc(C)c(C(F)(F)F)c2)c2nnnn2C)n1 [Example 118] | 4.56 |  | 
11 | CCCCCC(=O)Nc1cccc(CON=C(c2ccc(F)c(C)c2)c2nnnn2C)n1 [Example 119] | 4.11 |  | 
12 | CCCCCOC(=O)Nc1cccc(CON=C(c2cc(C)ccc2F)c2nnnn2C)n1 [Example 121] | 4.19 |  | 
13 | CCCCCOC(=O)Nc1ccnc(CON=C(c2ccc(C)c(C(F)(F)F)c2)c2nnnn2C)n1 [Example 122] | 4.59 |  | 
14 | CCCCCC(=O)Nc1cccc(CON=C(c2cc(C)cc(F)c2)c2nnnn2C)n1 [Example 123] | 4.14 |  | 
15 | Cc1ccc(C(F)(F)F)cc1C(=NOCc1cccc(N)n1)c1nnnn1C [Example 124] | 1.73 |  | 
16 | Cc1cc(C)cc(C(=NOCc2cccc(N)n2)c2nnnn2C)c1 [Example 125] | 1.81 |  | 
17 | Cn1nnnc1C(=NOCc1cccc(N)n1)c1cc(F)cc(C(F)(F)F)c1 [Example 127] | 1.75 |  | 
18 | Cc1ccc(C(=NOCc2nccc(N)n2)c2nnnn2C)cc1C(F)(F)F [Example 128, 2-{[({(1-methyl-1H-tetrazol-5-yl)[4-methyl-3-(trifluoromethyl)phenyl]methylidene}amino)oxy]methyl}pyrimidin-4-amine] |  |  | chromatographic logP: 1.7
19 | Cc1nc(N)cc(CON=C(c2ccc(F)c(Oc3ccccc3)c2)c2nnnn2C)n1 [Example 129] | 1.75 |  | 
20 | Cc1ccc(C(F)(F)F)cc1C(=NOCc1csc(N)n1)c1nnnn1C [Example 130] | 1.92 |  | 
21 | Cn1nnnc1C(=NOCc1csc(N)n1)c1cc(F)cc(C(F)(F)F)c1 [Example 131] | 2.14 |  | 
22 | Cc1ccc(F)c(C(=NOCc2csc(N)n2)c2nnnn2C)c1 [Example 132] | 1.65 |  | 
23 | Cn1nnnc1C(=NOCc1cccc(N)n1)c1cc(C(F)(F)F)ccc1Cl [Example 133] |  | 1.72 | 
24 | Cn1nnnc1C(=NOCc1cccc(N)n1)c1ccc(C(F)(F)F)c(Cl)c1 [Example 134] |  | 1.9 | 

Row | SMILES | logp | Log p | further results
25 | Cc1cc(F)cc(C(=NOCc2cccc(N)n2)c2nnnn2C)c1 [Example 135] |  | 1.46 | 
26 | Cc1ccc(F)c(C(=NOCc2cccc(N)n2)c2nnnn2C)c1 [Example 136] |  | 1.4 | 
27 | Cc1ccc(C(=NOCc2cccc(N)n2)c2nnnn2C)cc1F [Example 137] |  | 1.52 | 
28 | Cc1cccc(C(=NOCc2cccc(N)n2)c2nnnn2C)c1F [Example 138] |  | 1.42 | 
29 | Cc1nc(N)cc(CON=C(c2ccc(F)c(Oc3ccccc3)c2)c2nnn(C)n2)n1 [Example 139] |  | 1.73 | 
30 | Cn1nnc(C(=NOCc2csc(N)n2)c2ccc(F)c(Oc3ccccc3)c2)n1 [Example 140] |  | 2.23 | 
31 | Cn1nnnc1C(=NOCc1cccc(N)n1)c1cccc(C(F)(F)F)c1F [Example 143, 6-{[({[2-fluoro-3-(trifluoromethyl)phenyl](1-methyl-1H-tetrazol-5-yl)methylidene}amino)oxy]methyl}pyridin-2-amine] |  |  | chromatographic logP (read-out: Log p): 1.75
32 | Cc1ccc(C(=NOCc2csc(N)n2)c2nnnn2C)cc1C(F)(F)F [Example 145, 4-{[({(1-methyl-1H-tetrazol-5-yl)[4-methyl-3-(trifluoromethyl)phenyl]methylidene}amino)oxy]methyl}-1,3-thiazol-2-amine] |  |  | chromatographic logP (read-out: Log p): 2.22
33 | CCCC(=O)Nc1nc(CON=C(c2ccc(F)c(Oc3ccccc3)c2)c2nnnn2C)cs1 [Example 146] |  | 3.35 | 
34 | Cn1nnnc1C(=NOCc1csc(NC(=O)C(C)(C)C)n1)c1ccc(F)c(Oc2ccccc2)c1 [Example 147] |  | 4.05 | 
35 | Cn1nnnc1C(=NOCc1csc(NC(=O)C2CC2)n1)c1ccc(F)c(Oc2ccccc2)c1 [Example 148] |  | 3.48 | 
36 | Cn1nnnc1C(=NOCc1csc(N)n1)c1ccc(F)c(Oc2ccccc2)c1 [Example 149] |  | 2.25 | 
37 | Cc1cc(C(=NOCc2csc(NC(=O)OC(C)(C)C)n2)c2nnnn2C)ccc1F [Example 150, tert-butyl {4-[({[(4-fluoro-3-methylphenyl)(1-methyl-1H-tetrazol-5-yl)methylidene]amino}oxy)methyl]-1,3-thiazol-2-yl}carbamate] |  |  | chromatographic logP (read-out: Log p): 3.89
38 | Cc1cc(C(=NOCc2csc(NCCC3CCCCC3)n2)c2nnnn2C)ccc1F [Example 151] |  | 4.36 | 
39 | CCCCC#Cc1nc(CON=C(c2ccc(F)c(C)c2)c2nnnn2C)cs1 [Example 152] |  | 4.78 | 
40 | CCCC#Cc1nc(CON=C(c2ccc(F)c(C)c2)c2nnnn2C)cs1 [Example 153, 1-(4-fluoro-3-methylphenyl)-1-(1-methyl-1H-tetrazol-5-yl)-N-{[2-(pent-1-yn-1-yl)-1,3-thiazol-4-yl]methoxy}methanimine] |  |  | chromatographic logP (read-out: Log p): 4.36
41 | Cc1cc(C(=NOCc2csc(NCC3CC3)n2)c2nnnn2C)ccc1F [Example 154, N-(cyclopropylmethyl)-4-[({[(4-fluoro-3-methylphenyl)(1-methyl-1H-tetrazol-5-yl)methylidene]amino}oxy)methyl]-1,3-thiazol-2-amine] |  |  | chromatographic logP (read-out: Log p): 2.71
42 | Cc1cc(C(=NOCc2csc(C#CCCCc3ccccc3)n2)c2nnnn2C)ccc1F [Example 155] |  | 5.32 | 
43 | CCC#Cc1nc(CON=C(c2ccc(F)c(C)c2)c2nnnn2C)cs1 [Example 156] |  | 4.09 | 
44 | Cc1cc(C(=NOCc2cccc(N)n2)c2nnnn2C)ccc1F [Example 159] |  | 1.50 | 
45 | Cc1cc(C(=NOCc2csc(Br)n2)c2nnnn2C)ccc1F [Example 161, N-[(2-bromo-1,3-thiazol-4-yl)methoxy]-1-(4-fluoro-3-methylphenyl)-1-(1-methyl-1H-tetrazol-5-yl)methanimine] |  |  | chromatographic logP (read-out: Log p): 3.57
46 | Cc1ccc(C(=NOCc2cccc(N)n2)c2nnnn2C)cc1C(F)(F)F [Example 162] |  | 2.10 | 
47 | Cc1cc(C(=NOCc2csc(N)n2)c2nnnn2C)ccc1F [Example 163] |  | 1.75 | 
